Experimental data taken from US8575214B2, “MGlu 2/3 agonists” (Eli Lilly and Company, priority 2012, dated 2013).

What was measured:
[1] = 1 h, 10 µM, pH 7.4
Experimental: Frozen human duodenum intestinal homogenates (1:2 tissue:buffer ratio using 100 mM Tris Phosphate buffer, pH 7.4) are obtained from Celsius In Vitro Technologies (Baltimore, Md.) that were both phenylmethylsulphonylfluoride (PMSF) and EDTA free.
All original tissue collections are performed at 4° C. and immediately frozen at −70° C. Human intestinal homogenates are thawed and diluted to a final protein concentration of 0.5 mg/mL in 100 mM PBS buffer, pH 7.4 immediately prior to the incubations.
Incubations are conducted in 96-well plates and all prodrugs are run in duplicate on each day. Stock prodrug solutions are prepared in water at a concentration of 1 mM. A 200 μL aliquot of 0.5 mg/mL intestinal homogenate and 196 μL of 100 mM PBS buffer are placed in a 96-well plate in a 37° C. water bath. Using a 96-well pipettor, 4 μL of the 1 mM prodrug solution is transferred into the homogenate. Immediately after addition of the prodrug (time zero) and after 1 hour incubation, 50 μL samples of the incubation mixture are removed using an automated disposable simultaneous 96 well pipettor and added directly to 200 μL of methanol quench solution containing 100 ng/mL of Internal Standard. The samples are then centrifuged at 3500 rpm for 5 minutes at 10° C. The supernatant (200 μL) is transferred to a final 96 well PCR plate and sealed for analysis by LC/MS/MS.
Concentrations of hydrolyzed active metabolite in the incubation mixtures are determined using LC/MS/MS detection on a Sciex API 4000 quadrapole mass spectrometer with Analyst version 1.4.2, TurbolonSpray, positive ionization, and Selected Reaction Monitoring (SRM). […]
Averages and standard deviations are calculated using Microsoft® Office Excel® 2007. Amount of hydrolysis is determined as a molar percentage of active metabolite formed relative to prodrug concentration added.

hPepT1 = target: T1, hPepT1 (Homo sapiens, UniProt P46059); assay: In vitro PepT1 GlySar inhibition screen and IC50 determination; format: cell-based; conditions: PepT1 transiently transfected HeLa cells; for inhibition at 5000 µM: pH 6.0, 3 minutes, read-out: hPepT1 [3H]Gly-Sar uptake inhibition at 5 mM
T1 construct: expressed in transfected cells; host or cells: HeLa cells (ATCC), transient transfection with PepT1 DNA using FuGene6
T1 sequence (P46059 1-708): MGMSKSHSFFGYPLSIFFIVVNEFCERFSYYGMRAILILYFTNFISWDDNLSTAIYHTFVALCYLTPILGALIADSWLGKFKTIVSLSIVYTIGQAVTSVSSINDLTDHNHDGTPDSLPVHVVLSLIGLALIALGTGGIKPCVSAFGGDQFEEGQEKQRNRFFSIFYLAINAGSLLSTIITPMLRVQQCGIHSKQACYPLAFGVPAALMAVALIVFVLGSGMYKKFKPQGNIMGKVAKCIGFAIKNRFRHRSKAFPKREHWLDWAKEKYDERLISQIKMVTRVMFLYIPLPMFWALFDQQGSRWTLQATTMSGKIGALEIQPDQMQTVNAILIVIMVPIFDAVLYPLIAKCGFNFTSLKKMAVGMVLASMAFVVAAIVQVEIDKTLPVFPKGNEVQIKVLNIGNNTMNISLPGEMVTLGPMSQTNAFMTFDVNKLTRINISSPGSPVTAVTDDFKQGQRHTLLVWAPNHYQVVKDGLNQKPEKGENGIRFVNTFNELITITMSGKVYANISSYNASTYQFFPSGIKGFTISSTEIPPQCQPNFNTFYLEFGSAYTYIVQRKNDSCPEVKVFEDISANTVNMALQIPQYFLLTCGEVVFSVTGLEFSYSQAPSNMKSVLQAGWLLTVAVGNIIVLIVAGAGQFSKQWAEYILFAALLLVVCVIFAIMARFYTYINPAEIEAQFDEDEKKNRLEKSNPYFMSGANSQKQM
Experimental: HeLa cells, […], (American Type Culture Collection) are grown in Hyclone Medium (Invitrogen, Cat# SH30243) containing 10% fetal bovine serum (FBS), 0.1 mM non essential amino acids (NEAA), and 100 units/mL penicillin with 100 μg/mL streptomycin at 37° C. in a 5% CO2 humidified atmosphere. The cell line is used for up to 40 passages and then discarded. Frozen cells in 1 ml vials are thawed in water bath for 1-2 minutes and added to 5 mL of cell medium at 37° C. Each of the T-flasks is provided with 8.5 mL of the fresh medium and 1.5 mL of the cell stock. Cells are passaged twice during a week. This is achieved by rinsing the flasks with 10 mL of phosphate buffered saline-ethylene diaminetetra acetic acid (PBS-EDTA), adding 2 mL of trypsin for 2-5 minutes, to detach the cells, and adding 8 mL of fresh medium to inhibit further activity of trypsin. Each new flask receives a combination of 8.5 mL of fresh medium and 1.5 mL of cell stock, in order to obtain 1:6 cell dilution. Cells are incubated at 37° C., until ready for the uptake study.
Cells that are 70-80% confluent in the T-flasks are plated 1 day prior to the transfection procedure. The flask with the cell stock is treated with PBS-EDTA and trypsin to detach the cells, and transfection medium is used from this point. Transfection medium consists of Dulbecco's Modified Eagle Medium (DMEM)+NEAA. To each well, 0.5 mL of the cell mixture is added (1.3×10^5 is the desired cell concentration) and the cells are incubated at 37° C. overnight. Twenty four hours before the assay, cells are transfected with PEPT1. Transfection mixture is prepared by mixing 600 μL of serum free transfection medium, 18 μL of FuGene6 (Roche Diagnostics), and 11 μg of the PepT1 DNA. The transfection reagent-DNA complex is incubated for 20 minutes and 24 μL of the reagent-DNA complex is added to each well.
J. Pharm. Exper Ther. 310:437-445). […] Uptake media consists of 140 mM NaCl, 5.4 mM KCl, 1.8 mM CaCl2, 0.8 mM MgSO4, 5 mM Glucose, 25 mM tris(hydroxymethyl)aminomethane buffer (TRIS). The solution is then brought to pH 6.0 using 2-(N-morpholino)ethanesulfonic acid. The incubation volume is 500 μL and is performed at room temperature for 3 minutes. To stop the uptake at the conclusion of the incubation time, the uptake media is aspirated off of the cell monolayer and 500 μL of ice cold PBS added to the well. The cells are washed 3 times with 500 μL of room temperature PBS without Ca^+2 and Mg^+2. The cells are then lysed with 300 μL of 1% Triton X100 H2O solution. […] A no inhibitor control is established and the percent inhibition of each prodrug is calculated with respect to this control.
The incubation and sampling procedures are exactly the same as the PepT1 screen described above.

[2] = test system: male, Sprague-Dawley rats; assay: Reversal of phencyclidine (PCP)-induced hyperlocomotor activity in rats; format: in vivo, rat; conditions: Rattus norvegicus; p.o., overnight fasted rats, 4 hours prior to 5 mg/kg PCP
From the text: Motor activity is monitored by placing individual male, Sprague-Dawley (Harlan, Indianapolis, Ind.) rats in transparent, plastic shoe-box cages of the dimensions 45×25×20 cm, with 1 cm depth of wood chips as bedding, and a metal grill on top of the cage. Motor monitors (Kinder Scientific) consist of a rectangular rack of 12 photobeams arranged in an 8×4 formation, (or a high density grouping of 22 in a 15×7 pattern) at a height of 5 cm, with a second rack (for measuring rearing behaviors) at a height of 15 cm. The shoe box cage is placed inside of these racks, with the racks on a 3 foot high tabletop in an isolated room. A compound of the invention (active) is dosed (intraperitoneal route) within a range of 0.3-10 mg/kg, 30 minutes prior to a 5 mg/kg challenge dose of phencyclidine (PCP). A compound of the invention (prodrug) is orally dosed within a range of 0.3-30 mg/kg, in overnight fasted rats, 4 hours prior to a 5 mg/kg challenge dose of PCP. On the test day, rats are placed in the test cage and allowed to acclimate for 30 minutes prior to PCP challenge; rats are monitored for an additional 60 minutes following PCP administration.
Data analysis and ED50 calculations are conducted using GraphPad Prism (San Diego, Calif. USA). Power analyses have determined that 8-10 rats per group are needed to have appropriate statistical power for detecting treatment differences (power=0.8). A one-way analysis of variance (ANOVA) with a post-hoc Dunnett's multiple comparison test is conducted on the total 60 minute locomotor activity. ED50 calculations are performed using non-linear regression curve fitting on percent reversal transformed data for each dose.

In the case of `CSCC[C@H](N)C(=O)N[C@@]1(C(=O)O)CC2(CC2)[C@H]2[C@H](C(=O)O)[C@H]21.Cl` [Example 6, (1S,2S,5R,6S)-2-[[(2S)-2-Amino-4-methylsulfanyl-butanoyl]amino]spiro[bi-cyclo[3.1.0]hexane-4,1′-cyclopropane]-2,6-dicarboxylic acid hydrochloride], the “human intestinal hydrolysis relative to Internal Prodrug A” value [1] is reported as 44%, the IC50 (hPepT1; 0.0625 to 25 mM, read-out: hPepT1 [3H]Gly-Sar uptake inhibition IC50) is reported as 250 µM and the inhibition at 5000 µM (hPepT1) is reported as 87%. The ED50 [2] was 4.31 mg/kg.

In the case of `Cl.NCC(=O)N[C@@]1(C(=O)O)CC2(CC2)[C@H]2[C@H](C(=O)O)[C@H]21` [Example 7, (1S,2S,5R,6S)-2-[(2-Aminoacetyl)amino]spiro[bi-cyclo[3.1.0]hexane-4,1′-cyclo-propane]-2,6-dicarboxylic acid hydrochloride], the “human intestinal hydrolysis relative to Internal Prodrug A” value [1] is reported as 34% and the inhibition at 5000 µM (hPepT1) is reported as 78%.
